Values after ≈ are worked out from the molar mass of the structure shown. Where two headings read alike, the source gives them in different places.
Columns and labels:
Acholeplasma laidlawii = test: MIC against mycoplasmas; type: cell-based; details: Table VIII, 48 hours, 37° C., phenol red color change
Proteus rettgeri = test: MIC aerobic screen, BA-2 agar; details: Providencia rettgeri, read-out: Minimum Inhibitory Concentration
M. canis = test: MIC against dermatophytes; type: cell-based; details: Microsporum canis; Table VI; strain 9237; 26° C., 48 hours; read-out: Minimum Inhibitory Concentration
[1] = tested on: Acinetobacter calcoaceticus; test: MIC aerobic screen, H-59 synthetic agar; details: read-out: Minimum Inhibitory Concentration
Clostridium septicum = test: MIC anaerobic screen; type: cell-based; details: Table IV, strain 1780, read-out: Minimum Inhibitory Concentration
Procedure: (§1) The antibiotic is prepared as described above for the aerobic screen.
(§2) All organisms are maintained in a tube of chopped meat broth with glucose supplied by Scott Laboratories in Rhode Island. Two days prior to running the test 0.1 ml of the maintained culture is transferred to a fresh tube of chopped meat broth, and the tube is incubated at 37° C. for 48 hours. After 48 hours incubation each culture is assumed to have grown to 1×10^8 CFU/ml.
(§3) The organisms are stamped onto antibiotic containing agar plates (Mueller Hinton Agar BBL+5% whole sheep blood+0.2% lysed sheep blood) to give an inoculum level of 10^5 CFU.
(§4) After stamping, the plates are placed in an anaerobic gas pack system (BBL) and incubated at 37° C. for 18 hours.

[2] = tested on: Fusobacterium necrophorum; test: MIC anaerobic screen; type: cell-based; details: Table IV, strain 11,338, read-out: Minimum Inhibitory Concentration
Procedure: as §1, §2, §3, §4

Clostridium histolyticum = test: MIC anaerobic screen; type: cell-based; details: Hathewaya histolytica, Table IV, strain 8572, read-out: Minimum Inhibitory Concentration
Procedure: as §1, §2, §3, §4

Eubacterium lentum = test: MIC anaerobic screen; type: cell-based; details: Eggerthella lenta, Table IV, strain 11,261, read-out: Minimum Inhibitory Concentration
Procedure: as §1, §2, §3, §4

Clostridium sporogenes = test: MIC anaerobic screen; type: cell-based; details: Table IV, strain 2372, read-out: Minimum Inhibitory Concentration
Procedure: as §1, §2, §3, §4

Streptococcus faecalis [3] = test: MIC aerobic screen, BA-2 agar; details: Enterococcus faecalis, strain 9011
Klebsiella penumoniae = test: MIC aerobic screen, H-59 synthetic agar; details: read-out: Minimum Inhibitory Concentration
Proteus morganii = test: MIC aerobic screen, BA-2 agar; details: Morganella morganii, strain 9774
Bacteroides fragilis = test: MIC anaerobic screen; type: cell-based
E. floccosum = test: MIC against dermatophytes; type: cell-based; details: Epidermophyton floccosum; Table VI; strain 9185; 26° C., 48 hours; read-out: Minimum Inhibitory Concentration
Streptococcus faecalis [4] = test: MIC aerobic screen, H-59 synthetic agar; details: Enterococcus faecalis, read-out: Minimum Inhibitory Concentration
Propionibacterium acnes = test: MIC anaerobic screen; type: cell-based; details: Cutibacterium acnes, Table IV, strain 4020, read-out: Minimum Inhibitory Concentration
[5] = read-out: Minimum Inhibitory Concentration, Table I, BA-2 agar
[6] = read-out: Minimum Inhibitory Concentration, Table II, additional tests

SMILES: CC1(O)CC(C(N)=O)N=C1c1ncccc1O (stereo not drawn) [EM4940A, 2,4-trans-3,4-dihydro-4-hydroxy-5-(3-hydroxy-2-pyridinyl)-4-methyl-2H-pyrrole-2-carboxamide]
- MIC (Acholeplasma laidlawii): 100 µg/mL (≈ 425 µM)
- MIC (Proteus rettgeri): 50 µg/mL (≈ 213 µM)
- MIC (M. canis): 100 µg/mL (≈ 425 µM)
- MIC [1]: 25 µg/mL (≈ 106 µM)
- MIC (Clostridium septicum): 12.5 µg/mL (≈ 53.1 µM)
- MIC [2]: 12.5 µg/mL (≈ 53.1 µM)
- MIC (Clostridium histolyticum): 12.5 µg/mL (≈ 53.1 µM)
- MIC (Eubacterium lentum): 12.5 µg/mL (≈ 53.1 µM)
- MIC (Clostridium sporogenes): 12.5 µg/mL (≈ 53.1 µM)
- MIC (Streptococcus faecalis [3]; [5]): > 100 µg/mL
- MIC (Streptococcus faecalis [3]; [6]): > 200 µg/mL
- MIC (Klebsiella penumoniae): 50 µg/mL (≈ 213 µM)
- MIC (Proteus morganii; [5]): 50 µg/mL (≈ 213 µM)
- MIC (Proteus morganii; [6]): 100 µg/mL (≈ 425 µM)
- MIC (Bacteroides fragilis; Table IV, anaerobic, strain 9005, read-out: Minimum Inhibitory Concentration): 50 µg/mL (≈ 213 µM)
- MIC (Bacteroides fragilis; Table IV, anaerobic, strain 10,277, read-out: Minimum Inhibitory Concentration): 50 µg/mL (≈ 213 µM)
- MIC (Bacteroides fragilis; Table IV, anaerobic, strain 10,278, read-out: Minimum Inhibitory Concentration): 50 µg/mL (≈ 213 µM)
- MIC (Bacteroides fragilis; Table IV, anaerobic, strain 10,279, read-out: Minimum Inhibitory Concentration): 50 µg/mL (≈ 213 µM)
- MIC (Bacteroides fragilis; Table IV, anaerobic, strain 10,281, read-out: Minimum Inhibitory Concentration): 50 µg/mL (≈ 213 µM)
- MIC (Bacteroides fragilis; Table IV, anaerobic, strain 11,085, read-out: Minimum Inhibitory Concentration): 100 µg/mL (≈ 425 µM)
- MIC (Bacteroides fragilis; Table IV, anaerobic, strain 11,086, read-out: Minimum Inhibitory Concentration): 50 µg/mL (≈ 213 µM)
- MIC (Bacteroides fragilis; read-out: Minimum Inhibitory Concentration): 12.5 µg/mL (≈ 53.1 µM)
- MIC (E. floccosum): > 100 µg/mL
- MIC (Streptococcus faecalis [4]): > 100 µg/mL
- MIC (Propionibacterium acnes): 50 µg/mL (≈ 213 µM)

From patent US4339535A, “Process for preparing antibiotic EM 4940” (E. R. Squibb & Sons, Inc., priority 1980, dated 1982)
